Experimental data: US9150592B2, “Heterocyclic nuclear hormone receptor modulators” (AbbVie Inc., priority 2012, dated 2015)

Experiments:
[1] = target: T1, Glucocorticoid Receptor (GR) (Homo sapiens, UniProt P04150); test: GR Fluorescence Polarization Assay (PolarScreen Glucocorticoid Receptor Competitor Assay, Red); details: IC50 class ranges, read-out: GR binding
T1 construct: purchased Invitrogen P2893
T1 sequence (P04150 1-777): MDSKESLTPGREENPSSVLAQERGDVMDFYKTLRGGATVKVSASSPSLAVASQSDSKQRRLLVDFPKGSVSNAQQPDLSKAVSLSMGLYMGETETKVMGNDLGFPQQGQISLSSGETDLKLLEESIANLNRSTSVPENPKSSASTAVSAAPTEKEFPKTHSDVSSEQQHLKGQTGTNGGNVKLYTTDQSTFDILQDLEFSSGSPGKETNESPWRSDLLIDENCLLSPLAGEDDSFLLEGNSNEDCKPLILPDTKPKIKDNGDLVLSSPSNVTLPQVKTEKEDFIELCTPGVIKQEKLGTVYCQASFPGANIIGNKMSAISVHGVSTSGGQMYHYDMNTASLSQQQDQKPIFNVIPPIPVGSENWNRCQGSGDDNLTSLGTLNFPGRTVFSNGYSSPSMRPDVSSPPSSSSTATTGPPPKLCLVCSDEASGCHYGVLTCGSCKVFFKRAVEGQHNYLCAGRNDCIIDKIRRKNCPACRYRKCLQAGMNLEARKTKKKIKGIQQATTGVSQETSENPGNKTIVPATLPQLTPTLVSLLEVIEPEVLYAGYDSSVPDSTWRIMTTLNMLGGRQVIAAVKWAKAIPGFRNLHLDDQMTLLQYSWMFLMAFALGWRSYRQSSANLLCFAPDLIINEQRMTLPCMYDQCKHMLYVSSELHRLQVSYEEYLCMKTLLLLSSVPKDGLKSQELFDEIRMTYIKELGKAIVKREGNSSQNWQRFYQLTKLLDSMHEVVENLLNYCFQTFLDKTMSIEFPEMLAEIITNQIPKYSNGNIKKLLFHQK
In short: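 Competitive fluorescence-polarization assay using a red fluorescent glucocorticoid tracer with human GR in kit buffer. Compounds serially diluted 1:4 in DMSO, incubated with tracer and GR overnight at 4° C, then polarization read.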

[2] = tested on: IL-6 in A549 cells stimulated with IL-1β; test: A549 Cell Assay to Measure Inflammation Markers (inhibition of IL-1β-induced IL-6); type: cell-based; details: intrinsic activity, Emax class ranges; for Emax: Homo sapiens, A549, A549 Cell Assay to Measure Inflammation Markers
In short: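 Compound pre-incubated with A549 cells 1 h at 37 °C, then stimulated with IL-1β (1 ng/mL final, 0.1% DMSO). Supernatant IL-6 quantified by MSD immunoassay after a further incubation. IC50 and Emax derived.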

SMILES | IC50 [1] [nM] | Emax [2] [%] | A549 Emax ([2]; A549 Cell Assay to Measure Inflammation Markers)
CCn1nc(-c2ccncn2)c2c1NCCSC2c1ccc(Br)cc1C (centres unmarked) [D.108] | < 100 | > 50 | –
Cc1c(Br)cccc1C1SC(C)(C)CNc2c1c(C1CC1)nn2C (centres unmarked) [D.69] | 100 to 1000 | < 50 | –
Cc1cc(Cl)cnc1C1SC(C)(C)CNc2c1c(C1CC1)nn2C (centres unmarked) [D.50] | 100 to 1000 | < 50 | –
Cc1cc(CCCO)ccc1[C@@H]1SC[C@@H](C)Nc2c1c(-c1ccccn1)nn2C (single isomer, unassigned) [M.51, 3-(4-(1,7-dimethyl-3-(pyridin-2-yl)-4,6,7,8-tetrahydro-1H-pyrazolo[3,4-e][1,4]thiazepin-4-yl)-3-methylphenyl)propan-1-ol] | < 100 | < 50 | –
Cc1nn(C)c2c1C(c1ccc(Cl)cc1Cl)SC1(CCCC1)CN2 (centres unmarked) [D.65] | < 100 | < 50 | –
Cn1nc(-c2ccccn2)c2c1NCCSC2c1ccc(C(N)=O)cc1Cl (centres unmarked) [I.1, 3-chloro-4-[1-methyl-3-(2-pyridyl)-4,6,7,8-tetrahydropyrazolo[3,4-e][1,4]thiazepin-4-yl]benzamide] | 100 to 1000 | < 50 | –
Cc1nn(C)c2c1C(c1ccc(Cl)cc1Cl)SC(C)(C)CN2 (centres unmarked) [D.4, 4-(2,4-dichlorophenyl)-1,3,6,6-tetramethyl-7,8-dihydro-4H-pyrazolo[3,4-e][1,4]thiazepine] | < 100 | < 50 | –
Cc1cc(C(F)(F)F)ccc1C1SC(C)(C)CNc2c1c(C)nn2C (centres unmarked) [D.61] | < 100 | < 50 | –
Cc1cc(Cl)ccc1[C@@H]1SC(C)(C)CNc2c1c(C)nn2C (single isomer, unassigned) [M.7] | 1000 to 10000 | < 50 | –
Cn1nc(-c2ccccn2)c2c1NCCSC2c1ccc(Cl)cc1C1CC1 (centres unmarked) [D.38] | < 100 | > 50 | –
Cc1cc(Cl)ccc1[C@@H]1S[C@@H](CCO)CNc2c1c(-c1ccccn1)nn2C (single isomer, unassigned) [M.13, 2-(4-(4-chloro-2-methylphenyl)-1-methyl-3-(pyridin-2-yl)-4,6,7,8-tetrahydro-1H-pyrazolo[3,4-e][1,4]thiazepin-6-yl)ethanol] | < 100 | < 50 | –
Cc1cc(Br)ccc1[C@@H]1SC[C@H](CO)Nc2c1c(-c1ccccn1)nn2C (racemic) [K.9] | < 100 | < 50 | –
Cc1cc(Cl)ccc1C1SC(C)(C)CNc2c1c(C)nn2C (centres unmarked) [D.57] | < 100 | > 50 | –
CCn1nc(-c2ccccn2)c2c1NCCSC2c1ccc(C#N)cc1C (single isomer, unassigned) [M.22, 3-methyl-4-(1-ethyl-3-(pyridin-2-yl)-4,6,7,8-tetrahydro-1H-pyrazolo[3,4-e][1,4]thiazepin-4-yl)benzonitrile] | < 100 | > 70 | –
Cc1nn(C)c2c1C(c1ccc(Cl)cc1Cl)SC1(CCOCC1)CN2 (centres unmarked) [D.67] | < 100 | < 50 | –
Cc1cccc(C2SCCNc3c2c(-c2ccccn2)nn3C)c1C (centres unmarked) [D.33] | 100 to 1000 | < 50 | –
Cc1cc(Cl)ccc1[C@H]1S[C@@H](CCO)CNc2c1c(C)nn2C (single isomer, unassigned) [M.15, 2-[4-(4-chloro-2-methyl-phenyl)-1,3-dimethyl-4,6,7,8-tetrahydro-1H-pyrazolo[3,4-e][1,4]thiazepin-6-yl]-ethanol] | 100 to 1000 | > 70 | –
Cc1cc(Cl)ccc1C1SCCNc2c1c(-c1cc(Br)ccn1)nn2C (centres unmarked) [D.19] | < 100 | < 50 | –
Cc1cc(C#N)ccc1[C@@H]1S[C@@H](C)CNc2c1c(C)nn2C [G.2] | 100 to 1000 | < 50 | –
Cn1nc(C2CC2)c2c1NCC(C)(C)SC2c1ccc(Cl)cc1F (centres unmarked) [D.53] | < 100 | < 50 | –
Cc1cc(Cl)cnc1C1SCCNc2c1c(-c1ccccn1)nn2C (centres unmarked) [D.21] | 100 to 1000 | < 50 | –
Cc1ccc(C2SCCNc3c2c(-c2ccccn2)nn3C)c(C)c1 (centres unmarked) [D.9] | < 100 | < 50 | –
Cc1cc(Br)ccc1[C@@H]1SC[C@@H](CO)Nc2c1c(-c1ccccn1)nn2C (racemic) [K.10, rac-((4R,7S)-4-(4-bromo-2-methylphenyl)-1-methyl-3-(pyridin-2-yl)-4,6,7,8-tetrahydro-1H-pyrazolo[3,4-e][1,4]thiazepin-7-yl)methanol] | < 100 | > 60 | –

SMILES | IC50 [1] [nM] | Emax [2] [%] | A549 Emax ([2]; A549 Cell Assay to Measure Inflammation Markers)
Cn1nc(-c2ccc(Br)cn2)c2c1NCCSC2c1ccc(Cl)cc1Cl (centres unmarked) [D.15, 3-(5-bromo-2-pyridyl)-4-(2,4-dichlorophenyl)-1-methyl-4,6,7,8-tetrahydropyrazolo[3,4-e][1,4]thiazepine] | < 100 | < 50 | –
Cc1cc(Cl)ccc1[C@H]1SC[C@@H](C)Nc2c1c(C)nn2C (racemic) [K.7] | < 100 | < 50 | –
Cc1ccc(Br)cc1C1SC(C)(C)C=Nc2c1c(C1CC1)nn2C (centres unmarked) [D.54] | 1000 to 10000 | < 50 | –
Cc1cc(Cl)ccc1C1SCCNc2c1c(-c1ccccn1)nn2C (centres unmarked) [D.1, 4-(4-chloro-2-methyl-phenyl)-1-methyl-3-(2-pyridyl)-4,6,7,8-tetrahydro-pyrazolo[3,4-e][1,4]thiazepine] | < 100 | > 60 | –
Cc1cc(Br)ccc1C1SC(C)CNc2c1c(C)nn2C (centres unmarked) [D.62, 4-(4-bromo-2-methyl-phenyl)-1,3,6-trimethyl-4,6,7,8-tetrahydropyrazolo[3,4-e][1,4]thiazepine] | 100 to 1000 | < 50 | –
CCn1nc(-c2ccccn2)c2c1NC(=O)CCC2c1ccc(C(=O)Nc2cccnc2C)cc1C (centres unmarked) [O.2] | 100 to 1000 | > 70 | –
Cc1cc(S(C)(=O)=O)ccc1C1SCCNc2c1c(-c1ccccn1)nn2C (centres unmarked) | 100 to 1000 | < 50 | –
Cc1cc(Cl)ccc1C1SCC(C(C)C)Nc2c1c(-c1ccccn1)nn2C (centres unmarked) [K.3] | < 100 | < 50 | –
Cc1cc(C(=O)Nc2cccnc2C)ccc1[C@@H]1SCCNc2c1c(-c1ccccn1)nn2C | < 100 | – | A (a compound with Emax>70%)
Cc1cc(C(N)=O)ccc1C1SC(C)(C)CNc2c1c(C)nn2C (centres unmarked) [I.4] | 1000 to 10000 | < 50 | –
CCn1nc(-c2ccccn2)c2c1NCCCC2c1ccc(Br)cc1 (centres unmarked) | < 100 | > 70 | –
Cc1cc(Cl)ccc1C1SCCNc2nn(C)cc21 (centres unmarked) [D.13] | 1000 to 10000 | < 50 | –
CCn1nc(-c2ccccn2)c2c1N[C@H](C)CS[C@H]2c1ccc(CCCO)cc1C (single isomer, unassigned) [M.35, 3-(4-(1-ethyl-7-methyl-3-(pyridin-2-yl)-4,6,7,8-tetrahydro-1H-pyrazolo[3,4-e][1,4]thiazepin-4-yl)-3-methylphenyl)propan-1-ol] | < 100 | > 70 | –
Cc1cc(CCC(C)(C)O)ccc1[C@@H]1SC[C@@H](C)Nc2c1c(-c1ccccn1)nn2C (single isomer, unassigned) [M.44, 4-(4-(1,7-dimethyl-3-(pyridin-2-yl)-4,6,7,8-tetrahydro-1H-pyrazolo[3,4-e][1,4]thiazepin-4-yl)-3-methylphenyl)-2-methylbutan-2-ol] | < 100 | > 60 | –
Cc1cc(Cl)ccc1C1SCCNc2c1c(-c1ccccn1)nn2C(C)C (centres unmarked) [D.105] | < 100 | > 60 | –
Cc1cc(C(=O)Nc2cccnc2C)ccc1[C@H]1CC[C@](O)(C(F)(F)F)Cc2c1c(-c1ccccn1)nn2C (racemic) | < 100 | > 70 | –
Cc1cc(Cl)ccc1[C@@H]1SC(C)(C)CNc2c1c(C1CC1)nn2C | 100 to 1000 | < 50 | –
Cc1cc(C#N)ccc1[C@H]1S[C@@H](C)CNc2c1c(C1CC1)nn2C (racemic) [G.3] | < 100 | < 50 | –
Cc1cc(Cl)ccc1[C@H]1SC(C)(C)CNc2c1c(C1CC1)nn2C | < 100 | > 60 | –
CCn1nc(-c2ccccn2)c2c1NCCSC2c1ccc(C(=O)Nc2n[nH]c(C)c2C#N)cc1C (centres unmarked) [S.9] | < 100 | < 50 | –
Cc1cc(Cl)ccc1C1SCCNc2c1c(O)nn2C (centres unmarked) [D.73, 4-(4-chloro-2-methyl-phenyl)-1-methyl-4,6,7,8-tetrahydropyrazolo[3,4-e][1,4]thiazepin-3-ol] | > 10000 | < 50 | –
CCn1nc(-c2ccccn2)c2c1NCCSC2c1ccc(C(=O)Nc2ccnn2C)cc1C (centres unmarked) [S.1, 4-(1-ethyl-3-(pyridin-2-yl)-4,6,7,8-tetrahydro-1H-pyrazolo[3,4-e][1,4]thiazepin-4-yl)-3-methyl-N-(1-methyl-1H-pyrazol-5-yl)benzamide] | < 100 | > 70 | –
Cc1ncccc1NC(=O)c1ccc(-c2nn(C)c3c2C(c2ccc(Cl)cc2Cl)SCCN3)nc1 (centres unmarked) [F.2] | 1000 to 10000 | < 50 | –
